Read-outs that look alike come from different tables or passages of the source.
Experiments:
[1] = test system: NSCLC cell lines; experiment: Drug sensitivity (growth inhibition, MTS assay) of epithelial versus mesenchymal NSCLC cell lines; type: cell-based
Description: (§1) Average values were used for analysis as described. […] Chou T. C., et al., Quantitative Analysis of Dose-Effect Relationships: The Combined Effects of Multiple Drugs or Enzyme Inhibitors. Adv Enzyme Regul.
The EMT signature was derived in 54 DNA fingerprinted NSCLC cell lines profiled on Affymetrix U133A, B, and Plus2.0 arrays and tested on the Illumina WGv2 and WGv3 platforms and in an independent set of head and neck cancer lines (HNC). E-cadherin and other protein levels were quantified by reverse phase protein array and correlated with the first principal component of the EMT signature. IC50s were determined for NSCLC cell lines by MTS assay. Response to erlotinib was evaluated in patients treated in the BATTLE clinical trial using eight-week disease […] and progression free survival.

[2] = test system: A549; experiment: Proliferation, CellTiter-Glo Luminescent Cell Viability; type: cell-based; details: Homo sapiens, single agent
Description: as §1

[3] = test system: Calu-1; experiment: as above; type: cell-based; details: Homo sapiens, single agent
Description: as §1

[4] = test system: H1299; experiment: as above; type: cell-based; details: Homo sapiens, NCI-H1299, single agent
Description: as §1

[5] = test system: H157; experiment: as above; type: cell-based; details: Homo sapiens, NCI-H157, single agent
Description: as §1

[6] = test system: H2882; experiment: as above; type: cell-based; details: NCI-H2882, single agent
Description: as §1

[7] = test system: H460; experiment: as above; type: cell-based; details: Homo sapiens, NCI-H460, single agent
Description: as §1

[8] = test system: Cells expressing high levels of Axl; experiment: Proliferation of six mesenchymal cell lines expressing high levels of Axl (summary); type: cell-based; details: single agent
Description: as §1

[9] = test system: NSCLC patients; experiment: BATTLE clinical trial, 8-week disease control and progression-free survival; type: in vivo, human
Description: BATTLE (Biomarker-integrated Approaches of Targeted Therapy for Lung Cancer Elimination) was a randomized, biomarker-based clinical trial for patients with recurrent or metastatic NSCLC in the second-line setting (Trial registration ID: NCT00409968). Kim E. S. H. R., The BATTLE Trial: Personalizing Therapy for Lung Cancer, Cancer Discovery 1:43-51 (2011). mRNA from tumors obtained via core-needle biopsy at enrollment were profiled on Human Gene 1.0 ST array, Affymetrix. Array results were deposited in the GEO repository (GSE33072).
We used pretreatment gene expression profiles (Affymetrix […]) from 101 chemo-refractory patients in our Biomarkers-Integrated Approaches of Targeted Therapy for Lung Cancer Elimination (BATTLE) treated with E, E+bexarotene (EB), sorafenib (S), or vandetanib (V). 24 cases of with EGFR & KRAS tumors treated with E or EB were compared to train the signature (two-sided t-test), using the primary end-point of the trial[8-week disease control (8 with DC)]. Principal component (PC) analysis and a logistic regression model were used to develop the signature. Gene expression profiles from 108 NSCLC cell lines (Illumina), with available E IC50 (N=94) and DNA methylation profiling (N=66, Illumina), were used for in vitro studies.

In the case of `Nc1ncnc2c1nc(N)n2[C@@H]1O[C@H](CO)[C@@H](O)[C@H]1O` [8-amino-adenosine], the “Fold higher mean IC50 in mesenchymal versus epithelial cell lines” value (shortened to “Fold higher mean IC50”) ([1]; all NSCLC cell lines) is reported as 1.7 fold.

For `C#Cc1cccc(Nc2ncnc3cc(OCCOC)c(OCCOC)cc23)c1` [Erlotinib, erlotinib], the “Sensitivity of mesenchymal cells” value ([1]; SGI-7079 versus erlotinib, p<0.001 by Wilcoxon test) was “uniformly resistant”, the “Fold higher mean IC50” value ([1]; all NSCLC cell lines) was 3.7 fold and the “Fold higher mean IC50” value ([1]; subset with wild-type EGFR and wild-type KRAS) was 2 fold. The IC50 [2] was 13.5 µM, the IC50 [3] was > 100 µM and the IC50 [4] was > 100 µM. For the same compound, the IC50 [5] was 48.5 µM, the IC50 [6] was > 100 µM and the IC50 [7] was > 100 µM. The IC50 ([8]; read-out: IC50 range across cell lines) was ≥ 13.5 µM, the IC50 ([8]; read-out: Mean IC50 across cell lines) was 77 µM and the “8-week DC rate” value ([9]; 5-gene signature-negative group) was 0%. For the same compound, the “8-week DC rate” value ([9]; 5-gene signature-positive group) was 83%, the “Median PFS” value ([9]; signature-negative group) was 7.2 weeks and the “Median PFS” value ([9]; signature-positive group) was 12.5 weeks. For the same compound, the “Progression-free survival hazard ratio” value ([9]; signature-positive versus signature-negative group, 95% CI 0.03-0.46) was 0.12 and the “Patients with 8-week disease control (DC)” value ([9]; wildtype EGFR and KRAS patients with mesenchymal signatures) was 1/5.

`CS(=O)(=O)N1CCN(Cc2cc3nc(-c4cccc5[nH]ncc45)nc(N4CCOCC4)c3s2)CC1` [GDC0941] was tested, and the “Fold higher mean IC50” value ([1]; all NSCLC cell lines) was 1.9 fold.

For `NC1(c2ccc(-c3nc4ccn5c(=O)[nH]nc5c4cc3-c3ccccc3)cc2)CCC1` [MK2206], the “Fold higher mean IC50” value ([1]; all NSCLC cell lines) was 1.5 fold.

`CNC(=O)c1cc(Oc2ccc(NC(=O)Nc3ccc(Cl)c(C(F)(F)F)c3)cc2)ccn1` [sorafenib] was tested, and the “Fold higher mean IC50” value ([1]; all NSCLC cell lines) was “not more resistant”.

Reference: patent US20140155397A1, “EMT SIGNATURES AND PREDICTIVE MARKERS AND METHOD OF USING THE SAME” (Board of Regents, priority 2011, published 2014)
